Where two headings read alike, the source gives them in different places.
Experiments:
[1] = test system: nsPEF-opened conductance pores; assay: whole-cell patch clamp of membrane conductance/resistance after nsPEF exposure; assay type: cell-based; settings: for condition of nsPEF-exposed cells: added prior to exposure to 1 or 5 pulses
Description: Patch clamp recording: Cells on a cover slip were transferred into a glass-bottomed chamber (Warner Instruments, Hamden, Conn.) mounted on a motorized stage (Prior Scientific Inc., Rockland, Mass.) of an IX71 FluoView™ 300 confocal laser scanning microscope. Recording pipettes were pulled from 1B150F-4 glass (World Precision Instruments, Sarasota, Fla.) to a tip resistance of 1.5-3 MOhm and moved into a position with a model 6500 hydraulic micromanipulator (Siskiyou, Grants Pass, Oreg.). Electrophysiology data were acquired using a Multiclamp 700B amplifier, Digidata 1322A A-D converter, and pCLAMP 10 software (Molecular Devices, Foster City, Calif.). The analog signal was low-pass filtered at 2 or 5 kHz, and digitized at “oversampling” rates of 10 to 50 kHz. The series resistance was not compensated. Typical values of the seal and access resistance were 4-15 GOhm and 4-10 MOhm, respectively, except for a solution pair HEPES/Cl. […] The data from these experiments were analyzed differently (see below).
As shown in the inventors preliminary experiments, nsPEF exposure could be damaging to the gigaohmic seal between the cell membrane and the glass pipette, thereby effectively destroying the patch-clamp recording configuration. […] The exposure of intact (rather than already “patched”) cells effectively removed any concerns about possible artifacts caused by the presence of the glass pipette during the exposure.
Once the whole-cell configuration was formed, the membrane resistance and capacitance (Rm and Cm) were measured using the Membrane Test utility of pClamp10 software. The holding level was set at −70 or −60 mV; 10- or 20-mV test pulses were applied at 30- to 100-Hz rates and averaged on-line (n=6-12). The membrane potential (MP) was measured by switching briefly from voltage to current clamp mode at I=0.
After Cm compensation, the holding membrane potential was set to −70 mV. In most experiments, the I-V relationship was obtained by applying voltage ramps, typically from −100 to +100 mV within 20-40 ms, and preceded by a brief step to −100 mV. Passive Gm was determined as the slope of the I-V curve by a best fit linear approximation through a region that contained no visible voltage-gated currents, usually from −80 to −50 mV. As one would expect, these Gm values correlated very closely with the inverse of Rm values measured using the Membrane Test. Erev was determined in a usual manner, as an intercept of the best fit line with abscissa.
Exposure to nsPEF and local E-field modeling: A Blumlein line pulse generator (Kolb, J. F., S. Kono, and K. H. Schoenbach. 2006. Nanosecond pulsed electric field generators for the study of subcellular effects. Bioelectromagnetics 27:172-187) produced nearly rectangular 60-ns pulses that were delivered to the selected cell by a pair of tungsten electrodes (0.125 mm electrode diameter, 0.31 mm gap between the electrodes). With a help of a micromanipulator, the electrodes were positioned 5-10 μm above the surface of the cover slip on the sides of the selected cell; the cell was in the middle of the gap between the electrodes, at a distance of about 50-100 μm from their tips.
To check if activation of endogenous NSCCs was responsible (at least in part) for observed nsPEF effects, an attempt was made by the inventors to modify these effects with ruthenium red and with lanthanide ions. It should be noted, however, that these substances are not truly specific and can affects various other channels and intracellular processes.
Ruthenium red was added to the bath solution of the K/Na pair (see Table 1) at 10, 50, or 200 μM prior to exposure to 1 or 5 pulses, and the whole-cell currents were recorded after the exposure in the usual manner.

hippocampal CA1 neurons = settings: cited from earlier work
liver cells = settings: oxidative stress-activated NSCCs; cited from earlier work

**Q.** Which results are given for `N.N.N.N.N.N.N.N.N.N.N.N.N.N.[Cl-].[Cl-].[Cl-].[Cl-].[Cl-].[Cl-].[O-2].[O-2].[Ru+3].[Ru+3].[Ru+4]` [ruthenium red]?
**A.** effect on membrane conductance increase by nsPEF ([1]; 10 μM in bath of K/Na pair, added prior to exposure): neither enhanced nor inhibited; effect on control (sham-exposed) cells ([1]; 50 μM in bath of K/Na pair): no apparent effect; condition of nsPEF-exposed cells ([1]; 50 μM in bath of K/Na pair): worsened the condition of nsPEF-exposed cells; effect on control (sham-exposed) cells ([1]; 200 μM in bath of K/Na pair): no apparent effect; condition of nsPEF-exposed cells ([1]; 200 μM in bath of K/Na pair): worsened the condition of nsPEF-exposed cells; swelling and other deleterious effects of oxygen-glucose deprivation (hippocampal CA1 neurons; 1 μM): reduced swelling

**Q.** With `[Cl][La]([Cl])[Cl]` [La^3+, LaCl3] as the compound, how does the “swelling and other deleterious effects of oxygen-glucose deprivation” value (hippocampal CA1 neurons; 100 μM) read?
**A.** The value was “reduced swelling”.

**Q.** For `[Cl][Gd]([Cl])[Cl]` [Gd^3+, GdCl3], which “protective effect against nsPEF permeabilization” value ([1]; 0.2 mM, initial trials) is on record?
**A.** The value was “no protection”.

**Q.** And the “number of necrotic cells” value (liver cells)?
**A.** Its value is “sharply decreased”.

**Q.** What about the “swelling and other deleterious effects of oxygen-glucose deprivation” value (hippocampal CA1 neurons; 100 μM) of the same compound?
**A.** The value was “reduced swelling”.
